Data from patent US11166942B2 (PRAXIS BIOTECH LLC, priority 2018, dated 2021).

Assays:
[1] = test system: CT26 tumor-bearing Balb/c mice, gastrocnemius; assay: Cachexia-induced muscle atrophy; type: in vivo, mouse; conditions: 10 mg/kg daily oral gavage for 12 days
Protocol: Wild type six-weeks-old male Balb/c mice obtained from the vivarium Fundación Ciencia & Vida Chile (Santiago, Chile) were used. Mice were housed in independent plastic cages in a room maintained at 25° C. with a 12-h:12-h light:dark cycle.
1×10^6 CT26 colon carcinoma cell line (ATCC #CRL-2638, ATCC Manassas, Va.) were injected subcutaneously in the right lower flank of each animal for induction of cachexia-induced muscle atrophy as described (Nat Commun. 2012 Jun. 12; 3:896). Non-injected animals were used as controls. At day 7 post tumor-cell injection, animals were randomized into two groups and treated with 10 mg/kg of test compound formulated in 50% Polyethylene glycol (PEG-400) in distilled water, or with vehicle (50% PEG-400 in distilled water) by daily oral gavage for 12 days.
After 12 treatments, animals were sacrificed and gastrocnemius were removed from both hindlimbs. Muscles derived from non-tumor-bearing mice were used as control.
Upon collection, muscles were immediately frozen in liquid nitrogen and then stored at −80° C. The frozen muscles were then homogenized with a T 10 basic ULTRA-TURRAX (IKa) in ice-cold buffer lysis (Cell Signaling 9803) and protease and phosphatase inhibitors (Roche). Lysates were sonicated for 3 min and centrifuged at 13,000 rpm for 20 minutes at 4° C. Protein concentration in supernatants was determined using BCA Protein Assay Kit (Pierce). Equal amount of protein was loaded on SDS-PAGE gels. […]
ATF4 (Abcam), Atrogin-1 (ECM Biosciences), MuRF-1 (Santa Cruz Biotechnology) and β-actin (Sigma-Aldrich) antibodies were used as primary antibodies. […] Quantification of protein bands was done by densitometry using ImageJ software.
Expression of ATF4 and the muscle atrophy markers, Atrogin-1 and MuRF-1, of gastrocnemius derived from control and CT26 tumor-bearing mice treated with vehicle or compound 58 are shown in FIG. 10A. […] The levels were normalized to β-actin expression and percentage was calculated as the percent relative to the expression of non-tumor-bearing mice (Control) which corresponds to 100%. […]

[2] = test system: MEF cells; assay: Frontotemporal dementia cellular model (progranulin knockdown in MEF cells); type: cell-based; conditions: PGRN siRNA mix, 1 μM or 5 μM, 48 hours (FIG. 13)
Protocol: MEF cells were maintained at 37° C. and 5% CO2 in DMEM supplemented with 10% fetal bovine serum (FBS), 2 mM L-glutamine, 100 U/ml penicillin, and 100 μg/ml streptomycin. After reaching 80% of confluence, cells were detached and seeded on 6-well plates in complete media at a density of 3×10^5 cells/well and allowed to recover for 48 h. To perform a knockdown expression of the progranulin protein, cells were then washed three times with PBS and treated with small interference RNA (siRNA) mix, that target progranulin (PGRN) gene (Qiagen FlexiTube siRNA mix, Cat No 1027416), according to manufacturer instructions.
Transfection media with siRNA mix was supplemented with OPTIMEM medium alone (GRN7) or 1 μM or 5 μM compound 58 in OPTIMEM medium. Transfection media without siRNA mix (Veh) and cells cultured in OPTIMEM medium alone (Unt) were used as controls.
After 48 hours treatment, culture media were removed and cells were lysed with SDS-PAGE lysis buffer. Lysates were transferred to 1.5 ml tubes and sonicated for 3 min. Total protein amount was quantified using BCA Protein Assay Kit (Pierce). Equal amount of proteins (30 μg) was loaded on SDS-PAGE gels. […]
PGRN (R&D Systems) and β-actin (Sigma-Aldrich) antibodies were used as primary antibodies. […] Quantification of protein bands was done by densitometry using ImageJ software. […]

For `O=C(NN1CCN(C[C@@H](O)COc2ccc(Cl)c(F)c2)CC1)c1ccc2cc(Cl)ccc2n1` [Compound 58, (R)-6-chloro-N-(4-(3-(4-chloro-3-fluorophenoxy)-2-hydroxypropyl)piperazin-1-yl)quinoline-2-carboxamide], the “ATF4 expression in gastrocnemius” value ([1]; vs vehicle (FIG. 10B)) was “reduction”, the “Atrogin-1 expression in gastrocnemius” value ([1]; vs vehicle (FIG. 10C)) was “reduction” and the “MuRF-1 expression in gastrocnemius” value ([1]; vs vehicle (FIG. 10D)) was “reduction”. The “expression of PGRN (progranulin) in siRNA knockdown condition” value [2] was “increased expression of progranulin”.
